Assay [1] relates to Pseudomonas aeruginosa. Description: Potency index, ratio of ampicillin MIC to compound MIC for Pseudomonas aeruginosa by agar dilution method. The format is functional. On the technique in general: In agar dilution the substance is mixed into plates at graded concentrations.
For a further assay, the system named is Candida albicans. Description: Antifungal activity against Candida albicans by agar dilution method. Type of assay: functional.
The next assay deals with Tubulin (Homo sapiens) (UniProt P68371+Q9H4B7+P0DPH7+P68366+Q13509+Q71U36+P04350+Q3ZCM7+P07437+P68363+Q9BQE3+Q6PEY2+Q13885+Q9BVA1+Q9BUF5). The assay is described as follows: Inhibition of tubulin polymerization (unknown origin) by fluorescence assay relative to control. The format is protein-complex assay. The following applies: concentration not given here.
In a further assay the test system is DU-145. The assay is described as follows: Cytotoxicity against human DU-145 cells by SRB assay. Type of assay: functional. (In general: In SRB staining, fixed cells bind dye roughly in proportion to their protein.)
Assay [2] relates to HepG2. Description: Cytotoxicity against human HepG2 cells assessed as growth inhibition. Type of assay: functional, cell-based.
Another assay deals with Aspergillus niger. The assay is described as follows: Antifungal activity against Aspergillus niger by agar dilution method. Type of assay: functional.
The test system of assay [3] is Staphylococcus aureus. The assay is described as follows: microbe, parasite or virus in culture.
The test system of assay [4] is Pseudomonas aeruginosa. Description: Antibacterial activity against Pseudomonas aeruginosa assessed as inhibition of bacterial growth. Type of assay: functional.
Assay [5] relates to Bacillus subtilis. The assay is described as follows: microbe, parasite or virus in culture.
The subject of assay [6] is Escherichia coli. Description: Antibacterial activity against Escherichia coli assessed as inhibition of bacterial growth. Type of assay: functional.
In assay [7] the test system is HepG2. The assay is described as follows: cells. The note with it: Homo sapiens.
For assay [8], the system named is Mycobacterium tuberculosis. Description: microbe, parasite or virus in culture. The note with it: 120 h.
Assay [9] has as its system Mycobacterium tuberculosis. Description: Antimycobacterial activity against Mycobacterium tuberculosis. Type of assay: functional.
In assay [10] the test system is Bordetella bronchiseptica. Description: Antibacterial activity against Bordetella bronchiseptica ATCC 4617 by plate dilution method. Type of assay: functional.
Assay [11] has as its system Pseudomonas aeruginosa. Description: Antibacterial activity against Pseudomonas aeruginosa ATCC 27853 by plate dilution method. The format is functional.
The next assay has as its system Enterococcus faecalis. Description: Antibacterial activity against Enterococcus faecalis ATCC 29212 by plate dilution method. The format is functional.
The test system of assay [12] is Escherichia coli. The assay is described as follows: Antibacterial activity against Escherichia coli ATCC 25922 by plate dilution method. Type of assay: functional.
Assay [13] has as its system Staphylococcus epidermidis. Description: Antibacterial activity against Staphylococcus epidermidis ATCC 12228 by plate dilution method. Type of assay: functional.
Assay [14] deals with Bacillus subtilis. Description: Antibacterial activity against Bacillus subtilis ATCC 6633 by plate dilution method. The format is functional.
The next assay concerns Proteus vulgaris. The assay is described as follows: Antibacterial activity against Proteus vulgaris ATCC 9920 by plate dilution method. The format is functional.
Assay [15] has as its system Staphylococcus aureus. Description: Antibacterial activity against Staphylococcus aureus ATCC 25923 by plate dilution method. Type of assay: functional.
The test system of another assay is Klebsiella pneumoniae. Description: Antibacterial activity against Klebsiella pneumoniae ATCC 700603 by plate dilution method. The format is functional.
The next assay relates to Bacillus cereus. The assay is described as follows: Antibacterial activity against Bacillus cereus ATCC 9946 by plate dilution method. Type of assay: functional.
The target in another assay is Acetylcholinesterase (Homo sapiens, UniProt P22303).
The target in the next assay is Carbonic anhydrase 2 (Homo sapiens, UniProt P00918).
The next assay deals with Carbonic anhydrase 1 (Homo sapiens, UniProt P00915).
A further assay deals with Carbonic anhydrase 12 (Homo sapiens, UniProt O43570). Description: Inhibition of human CA12.
A further assay addresses Carbonic anhydrase 9 (Homo sapiens, UniProt Q16790). Description: Inhibition of human CA9.
The test system of assay [16] is Escherichia coli. Description: Antibacterial activity against Escherichia coli by agar dilution method. The format is functional.
Assay [17] deals with Staphylococcus aureus. Description: Antibacterial activity against Staphylococcus aureus by agar dilution method. The format is functional.
For assay [18], the system named is Escherichia coli. Description: Potency index, ratio of ampicillin MIC to compound MIC for Escherichia coli by agar dilution method. The format is functional.
The subject of assay [19] is Bacillus subtilis. The assay is described as follows: Antibacterial activity against Bacillus subtilis by agar dilution method. Type of assay: functional.
The test system of assay [20] is Pseudomonas aeruginosa. The assay is described as follows: Antibacterial activity against Pseudomonas aeruginosa by agar dilution method. Type of assay: functional.
Assay [21] is filed under the species Mus musculus. Description: Antidepressant activity in Swiss albino mouse assessed as decrease in immobility time by forced swimming test. The format is functional.
The species entered for assay [22] is Mus musculus. The assay is described as follows: Antidepressant activity in Swiss albino mouse assessed as decrease in immobility time by tail suspension test. Type of assay: functional.
The test system of assay [23] is Mycobacterium tuberculosis. Description: microbe, parasite or virus in culture. The note with it: H37Rv.

Values after ≈ are worked out from the molar mass of the structure shown.

Sequence of Carbonic anhydrase 12 (O43570 whole entry): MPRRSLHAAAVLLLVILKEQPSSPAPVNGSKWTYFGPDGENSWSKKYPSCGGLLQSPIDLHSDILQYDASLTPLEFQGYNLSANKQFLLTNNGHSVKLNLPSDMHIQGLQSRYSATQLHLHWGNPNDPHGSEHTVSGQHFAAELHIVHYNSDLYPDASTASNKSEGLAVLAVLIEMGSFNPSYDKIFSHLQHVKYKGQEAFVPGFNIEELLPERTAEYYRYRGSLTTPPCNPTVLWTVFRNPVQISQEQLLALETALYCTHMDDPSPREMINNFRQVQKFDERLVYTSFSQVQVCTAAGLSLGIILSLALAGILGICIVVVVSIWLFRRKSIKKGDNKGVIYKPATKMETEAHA
Sequence of Carbonic anhydrase 1 (P00915 whole entry): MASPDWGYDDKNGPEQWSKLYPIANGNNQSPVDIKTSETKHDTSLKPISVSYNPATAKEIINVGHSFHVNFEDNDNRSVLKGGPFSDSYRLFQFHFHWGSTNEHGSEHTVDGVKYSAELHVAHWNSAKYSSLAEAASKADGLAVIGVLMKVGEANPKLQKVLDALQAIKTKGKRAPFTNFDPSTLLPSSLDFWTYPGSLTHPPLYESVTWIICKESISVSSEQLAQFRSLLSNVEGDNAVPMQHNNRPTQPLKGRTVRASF
Sequence of Acetylcholinesterase (P22303 whole entry): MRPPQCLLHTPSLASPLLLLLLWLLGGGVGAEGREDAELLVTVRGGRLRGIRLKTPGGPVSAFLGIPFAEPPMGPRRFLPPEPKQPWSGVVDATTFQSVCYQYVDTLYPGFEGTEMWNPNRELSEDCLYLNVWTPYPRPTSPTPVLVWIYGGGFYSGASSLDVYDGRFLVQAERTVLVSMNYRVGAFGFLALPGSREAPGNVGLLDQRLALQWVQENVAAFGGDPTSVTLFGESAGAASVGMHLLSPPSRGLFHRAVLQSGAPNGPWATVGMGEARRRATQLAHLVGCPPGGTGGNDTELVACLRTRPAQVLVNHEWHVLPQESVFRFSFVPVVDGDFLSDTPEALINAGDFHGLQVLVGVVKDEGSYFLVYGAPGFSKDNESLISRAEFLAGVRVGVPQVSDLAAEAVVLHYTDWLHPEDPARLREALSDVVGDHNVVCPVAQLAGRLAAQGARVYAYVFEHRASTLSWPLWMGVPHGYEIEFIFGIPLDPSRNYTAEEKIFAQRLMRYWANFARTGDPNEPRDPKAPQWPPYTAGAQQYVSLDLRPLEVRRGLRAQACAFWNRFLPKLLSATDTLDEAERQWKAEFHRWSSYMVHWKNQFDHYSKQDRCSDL

`Cc1cccc2cc(C3CC(c4cc(Br)ccc4O)=NN3)c3nnnn3c12` (stereo not given): the Ratio in the assay on Pseudomonas aeruginosa [1] amounted to 2. Besides, the MIC with Candida albicans amounted to 25 µg/mL (≈ 59.1 µM).
As for `COc1ccc(/C=C/C(=O)c2cc(OC)c(OC)c(OC)c2)cc1OCc1cn(Cc2ccc(N)cc2)nn1`, the inhibition (usually the percentage by which the read-out fell short of the control) at Tubulin (Homo sapiens) came out at 36%. The GI50 (in general, the concentration that inhibits growth by half) in the assay with DU-145 was 1500 nM.
Consider `Clc1ccc(-c2csc(N3N=C(c4cccs4)CC3c3ccc(Cl)cc3Cl)n2)cc1` (stereo not given), for which, in the assay with HepG2 [2], the IC50 (usually the midpoint of a concentration-inhibition curve) is 2980 nM.
Regarding `COc1cccc2cc(C3CC(c4cc(Br)ccc4O)=NO3)c3nnnn3c12` (stereo not given), the MIC against Aspergillus niger and with Candida albicans was 25 µg/mL (≈ 56.8 µM) throughout.
In the case of `CC(=O)N1N=C(c2ccc(Br)cc2)CC1c1cc(Cl)ccc1Oc1c([N+](=O)[O-])cc(C(F)(F)F)cc1[N+](=O)[O-]` (stereo not given), the MIC against Staphylococcus aureus [3] amounted to 3.12 µg/mL (≈ 4.98 µM); in the assay with Pseudomonas aeruginosa [4] it was 0.39 µg/mL (≈ 0.621 µM); against Bacillus subtilis [5], 3.12 µg/mL (≈ 4.98 µM); in the assay on Escherichia coli [6], 0.39 µg/mL (≈ 0.621 µM).
Take `CC(=O)N1N=C(c2nnn(-c3ccc(-n4nnc(C5=NN(C(C)=O)C(c6ccccc6)C5)c4C)cc3)c2C)CC1c1ccccc1` (stereo not given): the IC50 with HepG2 [7] came out at 57.1 µg/mL.
`CN[C@@H]1[C@H](O[C@H]2[C@H](O[C@H]3[C@H](O)[C@@H](O)[C@H](N=C(N)N)[C@@H](O)[C@@H]3N=C(N)N)O[C@@H](C)[C@]2(O)C=O)O[C@@H](CO)[C@H](O)[C@H]1O` [STREPTOMYCIN]: the MIC in assay [8] and in [9] was 6.25 µg/mL (≈ 10.7 µM) throughout.
On to `COc1cccc2cc(C3CC(c4cc(Br)ccc4O)=NN3)c3nnnn3c12` (stereo not given), for which the Ratio in the assay with Pseudomonas aeruginosa [1] stood at 2.
For the compound `O=c1oc2ccc(F)cc2cc1-c1csc(N2N=C(c3ccccc3F)CC2c2cc3ccccc3nc2Cl)n1` (stereo not given), the MIC (in assay [10]; in the assay with Pseudomonas aeruginosa [11]; against Enterococcus faecalis; with Escherichia coli [12]; in assay [13]; in the assay with Bacillus subtilis [14]) was 50 µg/mL (≈ 87.6 µM) each time. Besides, the MIC against Proteus vulgaris, against Staphylococcus aureus [15], with Klebsiella pneumoniae and in the assay on Bacillus cereus was 50 µg/mL (≈ 87.6 µM) each time.
At Acetylcholinesterase, `Cc1ccc(C(=O)/C=C/c2ccc(N3CCCCC3)cc2)s1` showed an IC50 of 130 nM.
As for `NS(=O)(=O)c1ccc(C(=O)N2N=C(c3ccc(F)cc3)CC2c2ccccc2)cc1` (stereo not given), the inhibition constant (Ki) (commonly a dissociation constant, usually derived from enzyme kinetics or from competition with a known ligand) on Carbonic anhydrase 2 turned out to be 31.7 nM; on Carbonic anhydrase 1 it was 87.8 nM; at Carbonic anhydrase 12 it was 7.1 nM; at Carbonic anhydrase 9, 5.5 nM.
In the case of `COc1ccc2c(c1)C1=NN(CCCN(C)C)C3=CC=C([N+](=O)[O-])C(N2)C31` (stereo not given), the MIC worked out at 3.12 µg/mL (≈ 8.46 µM) in [8] and 3.12 µg/mL (≈ 8.45 µM) in assay [9].
In the case of `Oc1ccc(Br)cc1C1=NNC(c2cc3ccccc3n3nnnc23)C1` (stereo not given), the Ratio in the assay on Pseudomonas aeruginosa [1] and with Escherichia coli [18] was 2 throughout. In addition, the MIC in the assay with Escherichia coli [16] is 50 µg/mL (≈ 122 µM); in the assay with Staphylococcus aureus [17], 25 µg/mL (≈ 61.1 µM); against Bacillus subtilis [19], 25 µg/mL (≈ 61.1 µM); in the assay with Pseudomonas aeruginosa [20] it was 50 µg/mL (≈ 122 µM).
The compound `COc1cc(C2CC(c3ccccc3O)=NN2c2cc3ccccc3s2)cc(OC)c1O` (stereo not given) registered an IC50 in the assay on HepG2 [7] of 3570 nM.
Regarding `Cc1nc(-c2ccc(Br)cc2)ccc1C1=NNC(c2c(F)cccc2Cl)C1` (stereo not given), the Time in the assay listed under Mus musculus [21] is reported as 66.67 s; in the assay listed under Mus musculus [22], 70.33 s. In addition, the MIC in [23] was found to be 12.5 µg/mL (≈ 28.1 µM).
Turning to `O=C1N=C(N2N=C(c3cccs3)CC2c2cc(Cl)ccc2Cl)S/C1=N/Nc1ccc(Cl)cc1` (stereo not given), in the assay on HepG2 [2], the IC50 came to 3540 nM.
`NC[C@H]1O[C@H](O[C@H]2[C@H](O)[C@@H](O[C@H]3O[C@H](CO)[C@@H](O)[C@H](N)[C@H]3O)[C@H](N)C[C@@H]2N)[C@H](N)[C@@H](O)[C@@H]1O` [BEKANAMYCIN]: the MIC against Staphylococcus aureus [3], with Pseudomonas aeruginosa [4], with Bacillus subtilis [5] and in the assay with Escherichia coli [6] was 1.56 µg/mL (≈ 3.23 µM) each time.
Turning to `NS(=O)(=O)c1ccc(C(=O)N2N=C(c3ccc(F)cc3)CC2c2ccc(F)cc2)cc1` (stereo not given), the Ki on Carbonic anhydrase 2 worked out at 31.7 nM; on Carbonic anhydrase 1 it was 87.8 nM; on Carbonic anhydrase 12, 7.1 nM; at Carbonic anhydrase 9 it was 5.5 nM.
Consider `CC1(C)S[C@@H]2[C@H](NC(=O)Cc3ccccc3)C(=O)N2[C@H]1C(=O)O` [PENICILLIN G], for which the MIC with Staphylococcus aureus [3] stood at 0.39 µg/mL (≈ 1.17 µM); in the assay on Pseudomonas aeruginosa [4], 3.12 µg/mL (≈ 9.35 µM); against Bacillus subtilis [5], 0.39 µg/mL (≈ 1.17 µM); in the assay with Escherichia coli [6] it was 3.12 µg/mL (≈ 9.35 µM).

The values above are taken from ChEMBL document CHEMBL5260848, “Recent advancements in the development of bioactive pyrazoline derivatives” (Eur J Med Chem, 2020).
